Laboratory results published in PubChem BioAssay AID1963985 (Molecular Pharmacology Branch, DTP, NCI, 2024).
Several values for one entry are separate records, joined by “and”; a condition that tells them apart may be missing. Equal values may be shown once.

Test system: 252836-082-R-J2-PDC tumor spheroids, viability
Experiment: Anticancer human tumor 252836-082-R-J2-PDC patient-derived head and neck squamous cell carcinoma cell line growth inhibition [PI3K]
Conditions: spheroids with HUVEC and MSC; for viability, T/C: stronger effect = lower value
Procedure, shortened: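 Tumor cells were combined with HUVEC and MSCs into spheroids, then dosed with PI3K-inhibitor combinations over half-log ranges capped near clinical Cmax or 10 microM.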

[1] = curve of first compound, second compound 0.0316 µM
[2] = curve of first compound, second compound 0.1 µM
[3] = curve of first compound, second compound 0.316 µM
[4] = curve of first compound, second compound 1 µM
[5] = second compound 0.0316 µM, first compound 0.0316 µM
[6] = second compound 0.0316 µM, first compound 0.1 µM
[7] = second compound 0.0316 µM, first compound 0.316 µM
[8] = second compound 0.0316 µM, first compound 1 µM
[9] = second compound 0.1 µM, first compound 0.0316 µM
[10] = second compound 0.1 µM, first compound 0.1 µM
[11] = second compound 0.1 µM, first compound 0.316 µM
[12] = second compound 0.1 µM, first compound 1 µM
[13] = second compound 0.316 µM, first compound 0.0316 µM
[14] = second compound 0.316 µM, first compound 0.1 µM
[15] = second compound 0.316 µM, first compound 0.316 µM
[16] = second compound 0.316 µM, first compound 1 µM
[17] = second compound 1 µM, first compound 0.0316 µM
[18] = second compound 1 µM, first compound 0.1 µM
[19] = second compound 1 µM, first compound 0.316 µM
[20] = second compound 1 µM, first compound 1 µM
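Also: spheroids exposed to agents for seven days before readout.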
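For viability, T/C in this document: percent of vehicle DMSO control viability so 100% = untreated growth.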

Question: `CCN1CCN(Cc2ccc(Nc3ncc(F)c(-c4cc(F)c5nc(C)n(C(C)C)c5c4)n3)nc2)CC1` + COc1c(OCCCN2CCOCC2)ccc2c3n(c(=NC(=O)c4cnc(N)nc4)nc12)CCN3 was tested. Which IC50 (curve of first compound, second compound 0.00316 µM) did it give?
Answer: > 1 µM

Question: What about the IC50 (curve of first compound, second compound 0.01 µM) of the same compound?
Answer: > 1 µM

Question: And the IC50 [1]?
Answer: > 1 µM

Question: What about the IC50 [2] of the same compound?
Answer: < 0.00316 µM

Question: And the IC50 [3]?
Answer: < 0.00316 µM

Question: And the IC50 [4]?
Answer: < 0.00316 µM

Question: And the viability, T/C (second compound 0.00316 µM, first compound 0.00316 µM)?
Answer: 86.4%

Question: And the viability, T/C (second compound 0.00316 µM, first compound 0.01 µM)?
Answer: 80.1%

Question: What about the viability, T/C (second compound 0.00316 µM, first compound 0.0316 µM) of the same compound?
Answer: 97.1%

Question: What about the viability, T/C (second compound 0.00316 µM, first compound 0.1 µM) of the same compound?
Answer: 85.4%

Question: What about the viability, T/C (second compound 0.00316 µM, first compound 0.316 µM) of the same compound?
Answer: 91.6%

Question: And the viability, T/C (second compound 0.00316 µM, first compound 1 µM)?
Answer: 82.6%

Question: What about the viability, T/C (second compound 0.01 µM, first compound 0.00316 µM) of the same compound?
Answer: 75.8%

Question: What about the viability, T/C (second compound 0.01 µM, first compound 0.01 µM) of the same compound?
Answer: 75.2%

Question: What about the viability, T/C (second compound 0.01 µM, first compound 0.0316 µM) of the same compound?
Answer: 82.5%

Question: And the viability, T/C (second compound 0.01 µM, first compound 0.1 µM)?
Answer: 80.8%

Question: What about the viability, T/C (second compound 0.01 µM, first compound 0.316 µM) of the same compound?
Answer: 72.6%

Question: And the viability, T/C (second compound 0.01 µM, first compound 1 µM)?
Answer: 78%

Question: What about the viability, T/C (second compound 0.0316 µM, first compound 0.00316 µM) of the same compound?
Answer: 56.2%

Question: What about the viability, T/C (second compound 0.0316 µM, first compound 0.01 µM) of the same compound?
Answer: 59%

Question: What about the viability, T/C [5] of the same compound?
Answer: 55.4%

Question: What about the viability, T/C [6] of the same compound?
Answer: 57%

Question: What about the viability, T/C [7] of the same compound?
Answer: 55.5%

Question: What about the viability, T/C [8] of the same compound?
Answer: 47%

Question: And the viability, T/C (second compound 0.1 µM, first compound 0.00316 µM)?
Answer: 34.6%

Question: What about the viability, T/C (second compound 0.1 µM, first compound 0.01 µM) of the same compound?
Answer: 34.9%

Question: What about the viability, T/C [9] of the same compound?
Answer: 31.2%

Question: What about the viability, T/C [10] of the same compound?
Answer: 29.7%

Question: And the viability, T/C [11]?
Answer: 33.9%

Question: What about the viability, T/C [12] of the same compound?
Answer: 32.4%

Question: And the viability, T/C (second compound 0.316 µM, first compound 0.00316 µM)?
Answer: 14.1%

Question: What about the viability, T/C (second compound 0.316 µM, first compound 0.01 µM) of the same compound?
Answer: 15.2%

Question: What about the viability, T/C [13] of the same compound?
Answer: 12.4%

Question: And the viability, T/C [14]?
Answer: 13.1%

Question: And the viability, T/C [15]?
Answer: 17.7%

Question: What about the viability, T/C [16] of the same compound?
Answer: 14.9%

Question: And the viability, T/C (second compound 1 µM, first compound 0.00316 µM)?
Answer: 4.92%

Question: And the viability, T/C (second compound 1 µM, first compound 0.01 µM)?
Answer: 3.69%

Question: And the viability, T/C [17]?
Answer: 3.43%

Question: And the viability, T/C [18]?
Answer: 4.13%

Question: And the viability, T/C [19]?
Answer: 5.78%

Question: And the viability, T/C [20]?
Answer: 8.31%

Question: What does the source list for `CC(C)n1nc(-c2ccc3oc(N)nc3c2)c2c(N)ncnc21`?
Answer: viability, T/C (compound 0.000316 µM): 93.7% [middle of 4 runs]; viability, T/C (compound 0.001 µM): 91.8% [middle of 4 runs]; viability, T/C (compound 0.00316 µM): 87.4% [middle of 4 runs]; viability, T/C (compound 0.01 µM): 80.9% [middle of 4 runs]; viability, T/C (compound 0.0316 µM): 53.5% [middle of 4 runs]; viability, T/C (compound 0.1 µM): 23% [middle of 4 runs]; IC50 (curve of compound): 36.6 nM [middle of 4 runs]

Question: For `Cn1cnc2c(F)c(Nc3ccc(Br)cc3Cl)c(C(=O)NOCCO)cc21`, which viability, T/C (compound 0.00949 µM) is on record?
Answer: 80.3% and 86.2% (2×) and 89.4%

Question: What about the viability, T/C (compound 0.03 µM) of the same compound?
Answer: 93.8% [middle of 4 runs]

Question: What about the viability, T/C (compound 0.0949 µM) of the same compound?
Answer: 81.6% [middle of 4 runs]

Question: And the viability, T/C (compound 0.3 µM)?
Answer: 86.9% [middle of 4 runs]

Question: What about the viability, T/C (compound 0.949 µM) of the same compound?
Answer: 72.7% [middle of 4 runs]

Question: And the viability, T/C (compound 3 µM)?
Answer: 49.5% [middle of 4 runs]

Question: With `CC1(C)CCC(CN2CCN(c3ccc(C(=O)NS(=O)(=O)c4ccc(NCC5CCOCC5)c([N+](=O)[O-])c4)c(Oc4cnc5[nH]ccc5c4)c3)CC2)=C(c2ccc(Cl)cc2)C1` + CC(Nc1ncnc2nc[nH]c12)c1cc2cccc(Cl)c2c(=O)n1-c1ccccc1 as the compound, how does the IC50 [1] read?
Answer: > 10 µM

Question: And the IC50 [2]?
Answer: > 10 µM

Question: What about the IC50 [3] of the same compound?
Answer: > 10 µM

Question: What about the IC50 [4] of the same compound?
Answer: > 10 µM

Question: And the IC50 (curve of first compound, second compound 3.16 µM)?
Answer: > 10 µM

Question: And the IC50 (curve of first compound, second compound 10 µM)?
Answer: > 10 µM

Question: What about the viability, T/C [5] of the same compound?
Answer: 96.7%

Question: And the viability, T/C [6]?
Answer: 88.3%

Question: What about the viability, T/C [7] of the same compound?
Answer: 95.9%

Question: And the viability, T/C [8]?
Answer: 93%

Question: And the viability, T/C (second compound 0.0316 µM, first compound 3.16 µM)?
Answer: 87.3%

Question: What about the viability, T/C (second compound 0.0316 µM, first compound 10 µM) of the same compound?
Answer: 81.8%

Question: And the viability, T/C [9]?
Answer: 102%

Question: What about the viability, T/C [10] of the same compound?
Answer: 77.1%

Question: And the viability, T/C [11]?
Answer: 79%

Question: And the viability, T/C [12]?
Answer: 99.1%

Question: And the viability, T/C (second compound 0.1 µM, first compound 3.16 µM)?
Answer: 80.8%

Question: And the viability, T/C (second compound 0.1 µM, first compound 10 µM)?
Answer: 86.7%

Question: And the viability, T/C [13]?
Answer: 92.5%

Question: And the viability, T/C [14]?
Answer: 100%

Question: And the viability, T/C [15]?
Answer: 102%

Question: And the viability, T/C [16]?
Answer: 106%

Question: And the viability, T/C (second compound 0.316 µM, first compound 3.16 µM)?
Answer: 88.3%

Question: What about the viability, T/C (second compound 0.316 µM, first compound 10 µM) of the same compound?
Answer: 81.6%

Question: What about the viability, T/C [17] of the same compound?
Answer: 81%

Question: And the viability, T/C [18]?
Answer: 89.8%

Question: What about the viability, T/C [19] of the same compound?
Answer: 77.5%

Question: What about the viability, T/C [20] of the same compound?
Answer: 93.8%

Question: What about the viability, T/C (second compound 1 µM, first compound 3.16 µM) of the same compound?
Answer: 92.1%

Question: What about the viability, T/C (second compound 1 µM, first compound 10 µM) of the same compound?
Answer: 96%

Question: What about the viability, T/C (second compound 3.16 µM, first compound 0.0316 µM) of the same compound?
Answer: 80.5%

Question: What about the viability, T/C (second compound 3.16 µM, first compound 0.1 µM) of the same compound?
Answer: 84%

Question: What about the viability, T/C (second compound 3.16 µM, first compound 0.316 µM) of the same compound?
Answer: 71.8%

Question: What about the viability, T/C (second compound 3.16 µM, first compound 1 µM) of the same compound?
Answer: 81.2%

Question: What about the viability, T/C (second compound 3.16 µM, first compound 3.16 µM) of the same compound?
Answer: 67%

Question: And the viability, T/C (second compound 3.16 µM, first compound 10 µM)?
Answer: 65.7%

Question: And the viability, T/C (second compound 10 µM, first compound 0.0316 µM)?
Answer: 61%

Question: What about the viability, T/C (second compound 10 µM, first compound 0.1 µM) of the same compound?
Answer: 64.3%

Question: And the viability, T/C (second compound 10 µM, first compound 0.316 µM)?
Answer: 68.6%

Question: And the viability, T/C (second compound 10 µM, first compound 1 µM)?
Answer: 65.8%

Question: What about the viability, T/C (second compound 10 µM, first compound 3.16 µM) of the same compound?
Answer: 50.4%

Question: What about the viability, T/C (second compound 10 µM, first compound 10 µM) of the same compound?
Answer: 55.1%
